Experimental data published in patent US20060040951A1, “Use of 5-ht2 receptor antagonists for the treatment of sleep disorders” (Merck Patent GmbH, priority 2002, published 2006).

What was measured:
[1] = cited from earlier work
rats [2] = assay: Example B: EEG sleep-stage recording of non-anaesthetised rats over 12 hours, crossover study versus vehicle; assay type: in vivo, rat
Description: In order to measure the brain waves, EEG electrodes are implanted into the brain of anaesthetised rats. After a recovery time of 15 days, these electrodes are connected to an amplifier via a flexible cable, and the brain waves of the non-anaesthetised animals are recorded over 12 hours. (3-Cyano-1H-indol-7-yl)-[4-(4-fluorophenethyl)piperazin-1-yl]methanone is dissolved in advance in a concentration of 0.1 ml/100 g of peanut oil. This solution (compound) or, for comparison, merely the solvent (vehicle) is administered orally to the test animals in a dose of 3 mg/kg. From the filtered and amplified brain-wave signals, the sleep stages are evaluated via Fourier spectral analysis including certain criteria. The REM and non-REM sleep stages can be identified with reference to the patterns. The experimental results are shown in Tables 1 (effect of the substance) and 2 (significances of the measurement values). It becomes clear that (3-cyano-1H-indol-7-yl)-[4-(4-fluorophenethyl)piperazin-1-yl]methanone results in a significant extension both of non-REM sleep and of REM sleep and that these extensions are significant.
This experiment is a crossover study. This means that one and the same animal receives either first solvent (vehicle) and then, after a waiting time of one week, the test substance (3-cyano-1H-indol-7-yl)-[4-(4-fluorophenethyl)piperazin-1-yl]methanone (compound), or the administration is carried out in the reverse sequence.
The measured values after vehicle or compound administration are compared with one another using the statistical method of analysis of variance (ANOVA). The p value is a statistical measure of the probability that a difference occurs by chance between the measurement values or is caused by the substance administration. According to international standards, a p value of below 0.05 is regarded as “significant”.
It is clear from FIG. 1 that in particular stages 3 and 4, which are regarded as slow-wave sleep, are extended in non-REM sleep. […] The term delta power or delta waves denotes the “slow” waves recorded in the EEG which are characteristic of slow-wave sleep stages. For each rat, the hour average after solvent (vehicle) treatment was firstly determined and subtracted from the value after substance treatment.

rats [3] = assay: Brain-wave (EEG) recording of rats over 6 hours during the dark phase; assay type: in vivo, rat
[4] = rats, 3 mg/kg orally in peanut oil, 12 h recording, average ± standard error
[5] = rats, 3 mg/kg orally, 12 h recording, average ± standard error
[6] = 3 mg/kg per os, 6 h recording during dark phase

O=C1CCC(N2C(=O)c3ccccc3C2=O)C(=O)N1 (centres unmarked) [thalidomide]
effect on both sleep phases ([1]; known sleeping drug): extends both sleep phases

N#Cc1c[nH]c2c(C(=O)N3CCN(CCc4ccc(F)cc4)CC3)cccc12 [(3-cyano-1H-indol-7-yl)-[4-(4-fluorophenethyl)piperazin-1-yl]methanone]
relative delta power in the rat EEG, difference from the control level (rats [2]; FIG. 1, as a function of the time of day): significantly increased overall | NREM sleep Total Time (rats [2]; [4]): 232.8 ± 13.1 min | REM sleep Total Time (rats [2]; [4]): 45.3 ± 3.8 min | Wakefulness Total Time (rats [2]; [4]): 440.6 ± 15.1 min | Inter-REM interval (rats [2]; [5]): 28.8 ± 3.0 min | NREM sleep Episode Duration (rats [2]; [5]): 184.8 ± 9.5 s | REM Latency (rats [2]; [5]): 5.2 ± 0.3 min | REM sleep Episode Duration (rats [2]; [5]): 93.1 ± 6.6 s | Wakefulness Episode Duration (rats [2]; [5]): 422.5 ± 29.3 s | average increase in non-REM sleep (rats [3]; [6]): about 4 min/h | maximum increase in non-REM sleep (rats [3]; [6]): about 5 minutes per hour | extension of REM sleep, average (rats [3]; 6 h dark phase): 0.8 min/h | extension of REM sleep, maximum (rats [3]; 6 h dark phase): 2 min/h | what the change in REM sleep results from (rats [3]; 6 h dark phase): increase in the number of REM episodes

Cc1nnc2n1-c1ccc(Cl)cc1C(c1ccccc1Cl)=NC2 [triazolam, reference compound]
what the change in REM sleep results from (rats [3]; 6 h dark phase): reduction in the duration of the individual REM phases | extension of non-REM sleep (rats [3]; dose 0.1 mg/kg, 6 h dark phase): 2 min/h | extension of non-REM sleep (maximum effect) (rats [3]; dose 0.4 mg/kg, 6 h dark phase): 6.5 min/h

CCc1nn(CCCN2CCN(c3cccc(Cl)c3)CC2)c(=O)n1CCOc1ccccc1 [nefazodone]
effect on REM sleep ([1]; literature report): extend REM sleep | effect on slow-wave phases 3 and 4 of non-REM sleep ([1]; literature report): remain unchanged
